Measurements as given in patent US10131652B2, “Pyrimidinyloxy benzene derivatives as herbicides” (E. I. DU PONT DE NEMOURS AND COMPANY, priority 2014, dated 2018).

What was measured:
Experiment in all cases: Test F pre-/postemergence plant response
Assay type in all cases: in vivo
Details in all cases: scale 0 to 100
[1] = tested on: Italian ryegrass (Lolium multiflorum)
Summary of the method: (§1)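 Visual rating versus untreated controls, 0–100 scale (0 = no effect, 100 = complete control), taken 14–21 d after treatment in greenhouse. Pre: seeds planted in silt loam, soil treated. Post: plants 2–18 cm, 1–4 leaves. Compound formulated in non-phytotoxic solvent plus surfactant.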

[2] = tested on: wild poinsettia (Euphorbia heterophylla)
Summary of the method: as §1

corn (Zea mays) = tested on: corn (Zea mays)
Summary of the method: as §1

[3] = tested on: sandbur (southern sandbur, Cenchrus echinatus)
Summary of the method: as §1

[4] = tested on: fall panicum (Panicum dichotomiflorum)
Summary of the method: as §1

kochia (Kochia scoparia) = tested on: kochia (Kochia scoparia)
Summary of the method: as §1

[5] = tested on: nightshade (eastern black nightshade, Solanum ptycanthum)
Summary of the method: as §1

[6] = tested on: goosegrass (Eleusine indica)
Summary of the method: as §1

[7] = tested on: green foxtail (Setaria viridis)
Summary of the method: as §1

[8] = tested on: surinam grass (Brachiaria decumbens)
Summary of the method: as §1

[9] = tested on: Brazilian crabgrass (Digitaria horizontalis)
Summary of the method: as §1

soybean (Glycine max) = tested on: soybean (Glycine max)
Summary of the method: as §1

[10] = tested on: large (Lg) crabgrass (Digitaria sanguinalis)
Summary of the method: as §1

[11] = tested on: arrowleaf sida (Sida rhombifolia)
Summary of the method: as §1

[12] = tested on: lambsquarters (Chenopodium album)
Summary of the method: as §1

[13] = tested on: palmer pigweed (Amaranthus palmeri)
Summary of the method: as §1

Cc1cc(-c2ccccc2Oc2ncc(Cl)cn2)on1 [Compound 58]
Plant response rating, Ryegrass, Italian ([1]; 8 g ai/ha Postemergence): 0 | Plant response rating, Ryegrass, Italian ([1]; 8 g ai/ha Preemergence): 0 | Plant response rating, Ryegrass, Italian ([1]; 16 g ai/ha Postemergence): 0 | Plant response rating, Ryegrass, Italian ([1]; 16 g ai/ha Preemergence): 0 | Plant response rating, Ryegrass, Italian ([1]; 31 g ai/ha Postemergence): 0 | Plant response rating, Ryegrass, Italian ([1]; 31 g ai/ha Preemergence): 0 | Plant response rating, Ryegrass, Italian ([1]; 62 g ai/ha Postemergence): 0 | Plant response rating, Ryegrass, Italian ([1]; 125 g ai/ha Postemergence): 0 | Plant response rating, Ryegrass, Italian ([1]; 125 g ai/ha Preemergence): 0 | Plant response rating, Ryegrass, Italian ([1]; Preemergence): 0 | Plant response rating, Poinsettia, Wild ([2]; 8 g ai/ha Postemergence): 30 | Plant response rating, Poinsettia, Wild ([2]; 8 g ai/ha Preemergence): 0 | Plant response rating, Poinsettia, Wild ([2]; 16 g ai/ha Postemergence): 30 | Plant response rating, Poinsettia, Wild ([2]; 16 g ai/ha Preemergence): 0 | Plant response rating, Poinsettia, Wild ([2]; 31 g ai/ha Postemergence): 60 | Plant response rating, Poinsettia, Wild ([2]; 31 g ai/ha Preemergence): 20 | Plant response rating, Poinsettia, Wild ([2]; 62 g ai/ha Postemergence): 50 | Plant response rating, Poinsettia, Wild ([2]; 125 g ai/ha Postemergence): 60 | Plant response rating, Poinsettia, Wild ([2]; 125 g ai/ha Preemergence): 20 | Plant response rating, Poinsettia, Wild ([2]; Preemergence): 20 | Plant response rating, Corn (corn (Zea mays); 8 g ai/ha Postemergence): 0 | Plant response rating, Corn (corn (Zea mays); 8 g ai/ha Preemergence): 0 | Plant response rating, Corn (corn (Zea mays); 16 g ai/ha Postemergence): 0 | Plant response rating, Corn (corn (Zea mays); 16 g ai/ha Preemergence): 0 | Plant response rating, Corn (corn (Zea mays); 31 g ai/ha Postemergence): 0 | Plant response rating, Corn (corn (Zea mays); 31 g ai/ha Preemergence): 0 | Plant response rating, Corn (corn (Zea mays); 62 g ai/ha Postemergence): 5 | Plant response rating, Corn (corn (Zea mays); 62 g ai/ha Preemergence): 0 | Plant response rating, Corn (corn (Zea mays); 125 g ai/ha Postemergence): 5 | Plant response rating, Corn (corn (Zea mays); 125 g ai/ha Preemergence): 0 | Plant response rating, Sandbur ([3]; 8 g ai/ha Postemergence): 0 | Plant response rating, Sandbur ([3]; 8 g ai/ha Preemergence): 0 | Plant response rating, Sandbur ([3]; 16 g ai/ha Postemergence): 0 | Plant response rating, Sandbur ([3]; 16 g ai/ha Preemergence): 0 | Plant response rating, Sandbur ([3]; 31 g ai/ha Postemergence): 0 | Plant response rating, Sandbur ([3]; 31 g ai/ha Preemergence): 0 | Plant response rating, Sandbur ([3]; 62 g ai/ha Postemergence): 0 | Plant response rating, Sandbur ([3]; 125 g ai/ha Postemergence): 10 | Plant response rating, Sandbur ([3]; 125 g ai/ha Preemergence): 0 | Plant response rating, Sandbur ([3]; Preemergence): 0 | Plant response rating, Panicum, Fall ([4]; 8 g ai/ha Postemergence): 15 | Plant response rating, Panicum, Fall ([4]; 8 g ai/ha Preemergence): 0 | Plant response rating, Panicum, Fall ([4]; 16 g ai/ha Postemergence): 0 | Plant response rating, Panicum, Fall ([4]; 16 g ai/ha Preemergence): 35 | Plant response rating, Panicum, Fall ([4]; 31 g ai/ha Postemergence): 0 | Plant response rating, Panicum, Fall ([4]; 31 g ai/ha Preemergence): 65 | Plant response rating, Panicum, Fall ([4]; 62 g ai/ha Postemergence): 10 | Plant response rating, Panicum, Fall ([4]; 125 g ai/ha Postemergence): 15 | Plant response rating, Panicum, Fall ([4]; 125 g ai/ha Preemergence): 100 | Plant response rating, Panicum, Fall ([4]; Preemergence): 90 | Plant response rating, Kochia (kochia (Kochia scoparia); 8 g ai/ha Postemergence): 30 | Plant response rating, Kochia (kochia (Kochia scoparia); 8 g ai/ha Preemergence): 0 | Plant response rating, Kochia (kochia (Kochia scoparia); 16 g ai/ha Postemergence): 40 | Plant response rating, Kochia (kochia (Kochia scoparia); 16 g ai/ha Preemergence): 0 | Plant response rating, Kochia (kochia (Kochia scoparia); 31 g ai/ha Postemergence): 30 | Plant response rating, Kochia (kochia (Kochia scoparia); 31 g ai/ha Preemergence): 0 | Plant response rating, Kochia (kochia (Kochia scoparia); 62 g ai/ha Postemergence): 60 | Plant response rating, Kochia (kochia (Kochia scoparia); 125 g ai/ha Postemergence): 75 | Plant response rating, Kochia (kochia (Kochia scoparia); 125 g ai/ha Preemergence): 30 | Plant response rating, Kochia (kochia (Kochia scoparia); Preemergence): 0 | Plant response rating, Nightshade ([5]; 8 g ai/ha Preemergence): 0 | Plant response rating, Nightshade ([5]; 16 g ai/ha Preemergence): 65 | Plant response rating, Nightshade ([5]; 31 g ai/ha Preemergence): 80 | Plant response rating, Nightshade ([5]; 125 g ai/ha Preemergence): 98 | Plant response rating, Nightshade ([5]; Preemergence): 90 | Plant response rating, Goosegrass ([6]; 8 g ai/ha Preemergence): 0 | Plant response rating, Goosegrass ([6]; 16 g ai/ha Preemergence): 0 | Plant response rating, Goosegrass ([6]; 31 g ai/ha Preemergence): 5 | Plant response rating, Goosegrass ([6]; 125 g ai/ha Preemergence): 75 | Plant response rating, Goosegrass ([6]; Preemergence): 5 | Plant response rating, Foxtail, Green ([7]; 8 g ai/ha Preemergence): 0 | Plant response rating, Foxtail, Green ([7]; 16 g ai/ha Preemergence): 0 | Plant response rating, Foxtail, Green ([7]; 31 g ai/ha Preemergence): 0 | Plant response rating, Foxtail, Green ([7]; 125 g ai/ha Preemergence): 25 | Plant response rating, Foxtail, Green ([7]; Preemergence): 0 | Plant response rating, Surinam Grass ([8]; 8 g ai/ha Preemergence): 0 | Plant response rating, Surinam Grass ([8]; 16 g ai/ha Preemergence): 0 | Plant response rating, Surinam Grass ([8]; 31 g ai/ha Preemergence): 0 | Plant response rating, Surinam Grass ([8]; 125 g ai/ha Preemergence): 0 | Plant response rating, Surinam Grass ([8]; Preemergence): 0 | Plant response rating, Crabgrass, Brazil ([9]; 8 g ai/ha Postemergence): 5 | Plant response rating, Crabgrass, Brazil ([9]; 8 g ai/ha Preemergence): 0 | Plant response rating, Crabgrass, Brazil ([9]; 16 g ai/ha Postemergence): 5 | Plant response rating, Crabgrass, Brazil ([9]; 16 g ai/ha Preemergence): 0 | Plant response rating, Crabgrass, Brazil ([9]; 31 g ai/ha Postemergence): 5 | Plant response rating, Crabgrass, Brazil ([9]; 31 g ai/ha Preemergence): 0 | Plant response rating, Crabgrass, Brazil ([9]; 62 g ai/ha Postemergence): 10 | Plant response rating, Crabgrass, Brazil ([9]; 62 g ai/ha Preemergence): 35 | Plant response rating, Crabgrass, Brazil ([9]; 125 g ai/ha Postemergence): 10 | Plant response rating, Crabgrass, Brazil ([9]; 125 g ai/ha Preemergence): 75 | Plant response rating, Soybean (soybean (Glycine max); 8 g ai/ha Postemergence): 50 | Plant response rating, Soybean (soybean (Glycine max); 8 g ai/ha Preemergence): 0 | Plant response rating, Soybean (soybean (Glycine max); 16 g ai/ha Postemergence): 50 | Plant response rating, Soybean (soybean (Glycine max); 16 g ai/ha Preemergence): 10 | Plant response rating, Soybean (soybean (Glycine max); 31 g ai/ha Postemergence): 70 | Plant response rating, Soybean (soybean (Glycine max); 31 g ai/ha Preemergence): 20 | Plant response rating, Soybean (soybean (Glycine max); 62 g ai/ha Postemergence): 90 | Plant response rating, Soybean (soybean (Glycine max); 125 g ai/ha Postemergence): 95 | Plant response rating, Soybean (soybean (Glycine max); 125 g ai/ha Preemergence): 75 | Plant response rating, Soybean (soybean (Glycine max); Preemergence): 35 | Plant response rating, Crabgrass, Large ([10]; 8 g ai/ha Preemergence): 0 | Plant response rating, Crabgrass, Large ([10]; 16 g ai/ha Preemergence): 20 | Plant response rating, Crabgrass, Large ([10]; 31 g ai/ha Preemergence): 50 | Plant response rating, Crabgrass, Large ([10]; 62 g ai/ha Preemergence): 65 | Plant response rating, Crabgrass, Large ([10]; 125 g ai/ha Preemergence): 80 | Plant response rating, Arrowleaf Sida ([11]; 8 g ai/ha Postemergence): 50 | Plant response rating, Arrowleaf Sida ([11]; 8 g ai/ha Preemergence): 20 | Plant response rating, Arrowleaf Sida ([11]; 16 g ai/ha Postemergence): 70 | Plant response rating, Arrowleaf Sida ([11]; 16 g ai/ha Preemergence): 0 | Plant response rating, Arrowleaf Sida ([11]; 31 g ai/ha Postemergence): 60 | Plant response rating, Arrowleaf Sida ([11]; 31 g ai/ha Preemergence): 35 | Plant response rating, Arrowleaf Sida ([11]; 62 g ai/ha Postemergence): 75 | Plant response rating, Arrowleaf Sida ([11]; 62 g ai/ha Preemergence): 75 | Plant response rating, Arrowleaf Sida ([11]; 125 g ai/ha Postemergence): 90 | Plant response rating, Arrowleaf Sida ([11]; 125 g ai/ha Preemergence): 98 | Plant response rating, Lambsquarters ([12]; 16 g ai/ha Preemergence): 0 | Plant response rating, Lambsquarters ([12]; 31 g ai/ha Preemergence): 65 | Plant response rating, Lambsquarters ([12]; 125 g ai/ha Preemergence): 100 | Plant response rating, Lambsquarters ([12]; Preemergence): 90 | Plant response rating, Pigweed, Palmer ([13]; 8 g ai/ha Postemergence): 50 | Plant response rating, Pigweed, Palmer ([13]; 8 g ai/ha Preemergence): 0 | Plant response rating, Pigweed, Palmer ([13]; 16 g ai/ha Postemergence): 50 | Plant response rating, Pigweed, Palmer ([13]; 16 g ai/ha Preemergence): 0 | Plant response rating, Pigweed, Palmer ([13]; 31 g ai/ha Postemergence): 50 | Plant response rating, Pigweed, Palmer ([13]; 31 g ai/ha Preemergence): 0 | Plant response rating, Pigweed, Palmer ([13]; 62 g ai/ha Postemergence): 70 | Plant response rating, Pigweed, Palmer ([13]; 125 g ai/ha Postemergence): 60 | Plant response rating, Pigweed, Palmer ([13]; 125 g ai/ha Preemergence): 35 | Plant response rating, Pigweed, Palmer ([13]; Preemergence): 35
